Values after ≈ are worked out from the molar mass of the structure shown. Residues, ends and D or L forms follow the SMILES beside them.
How the values were obtained:
[1] = Solubility of IN-derived peptides in PBS; format: physicochemical; conditions: for Solubility: at 0 min, verified at 60 min, LC-MS
Procedure: (§1) Analytic HPLC-MS was performed using an Agilent 1260 series Liquid Chromatography/Mass Selective Detector (MSD) equipped with an electrospray interface and a UV diode array detector. Analyses were performed on an ACE C8, 50 × 3.0 mm, 3 µm column, with an isocratic 0.1% formic acid/ACN eluent, at a rate of 1 ml/min over a period of 5 min. UV absorption was measured at 280 nm, 220 nm, and 215–395 nm. MS analysis was performed with ESI (electron spray ionization) with a positive ionization method.
(§2) Four reaction systems were prepared; INS and INR2 in human plasma, INS and INR2 in rat plasma (Supplementary Table 2). Freshly prepared 10 mg/ml stock solution of the peptides was injected into plasma or PBS solution (1:1). The mixture was diluted with methanol to precipitate the plasma proteins. The samples were filtered through PTFE 0.45 µm filters and run in LC-MS. Samples were taken at the following times: 0, 15, 30, 60, 120, 240, and 480 min and after 24 h.
(§3) Plasma solubility was determined at 0 min and was verified at 60 min (if no degradation was observed).

[2] = Solubility of IN-derived peptides in human plasma; format: physicochemical; conditions: LC-MS
Procedure: as §1, §2, §3

[3] = Stability test in human plasma; format: in vitro ADME; conditions: for Analyte Remaining % / Concentration calculated from LC-MS data: human plasma, 10 mg/ml stock into plasma 1:1, LC-MS; for Concentration calculated from LC-MS data: methanol precipitation, 0.45 µm filtration; for Stability: rat and human plasma
Procedure: as §1, §2

[4] = Stability test in rat plasma; format: in vitro ADME; conditions: for Analyte Remaining %: 10 mg/ml stock into plasma 1:1, LC-MS; for Concentration calculated from LC-MS data: 10 mg/ml stock into plasma 1:1, methanol precipitation, 0.45 µm filtration
Procedure: as §1, §2

[5] = test system: Lymphocytes of healthy volunteers; test: Cytotoxicity of peptides, WST-1; format: cell-based, human; conditions: peptide alone
Procedure: Written informed consent was obtained from all eligible participants prior to entry into the study. Approval for this study was provided by Kaplan Medical Center’s Ethics Committee (Protocol No. ZMS1/2016). Lymphocytes of healthy volunteers were isolated from the peripheral blood by Ficoll-Paque density gradient centrifugation. Cells were incubated in DMEM with different peptide concentrations for 72 h. Then, 100 µl of cells were taken for toxicity testing using a quantitative cell viability test, the WST-1 assay.

[6] = test system: SD rats; test: 28-day repeated dose toxicity study; format: in vivo, rat; conditions: slow IV bolus twice weekly for 4 weeks, 4 weeks recovery; male and female SD rats; highest dose tested
Procedure: Four weeks of repeated dosing followed by four weeks of recovery was performed in female and male SD rats, via slow IV bolus of the INS peptide. Eighty rats (40 males and 40 females) were utilized for the main study groups (n = 10 per study group). An additional 40 animals (20 males and 20 females) were used as recovery groups (n = 5 per study group). Group allocation was done without investigator blinding. Study evaluations included: mortality and morbidity, body weight, food consumption, clinical signs, ophthalmological observation, blood collection for hematology, clinical chemistry, coagulation, urine analysis, necropsy, and gross pathology, organ weight, and histopathology. The study was approved by the Institutional Review Board of Tel Aviv Sourasky Medical Center.

[7] = test system: SD rats; test: Immunogenicity, anti-peptide antibody ELISA; format: in vivo, rat; conditions: biweekly administrations over 10 weeks, serum 1:50
Procedure: Animals were fed ad libitum a commercial rodent diet (Teklad Certified Global 18% Protein Diet). Animals had free access to sterilized and acidified drinking water (pH between 2.5 and 3.5). SD rats were randomly allocated to cages and treated twice a week, for ten weeks with INS peptide, at two doses of 1.5 and 7.5 mg/kg. Rat blood was collected before immunization (exposure to the peptide) to serve as a baseline, and after immunization at day 21, 35, 49, and 70/72. The immunogenicity was analyzed by evaluation of anti-peptide antibodies in the sera of SD rats, using a specific developed ELISA test. A 96 well plate was coated overnight with INS labeled with biotin (5 µg/ml) (Thermo Scientific) followed by blocking (3% Milk in PBS) for 1 h at room temperature (RT). Serum samples were diluted at 1:50 and added to the plates for 1 h at RT. After washing with PBST (three times), a donkey anti-rat antibody (Jackson Laboratories, cat. no. 705-035-003) (diluted 1:5000) was added and incubated for 1 h at RT. Then, TMB, diluted 1:2 was added and the reaction was stopped after 10 min with HCL solution. Absorbance was measured by an automated microplate reader (iMARK microplate reader, BioRad) with a wavelength of 450 nm.

## CC[C@H](C)[C@H](NC(=O)[C@H](Cc1ccccc1)NC(=O)[C@@H](NC(=O)[C@H](C)NC(=O)[C@H](CCSC)NC(=O)[C@H](CCC(N)=O)NC(=O)[C@@H](NC(=O)[C@H](C)NC(=O)[C@@H](NC(=O)[C@@H](N)Cc1c[nH]c2ccccc12)[C@@H](C)O)C(C)C)C(C)C)C(=O)N[C@@H](Cc1c[nH]cn1)C(=O)N[C@@H](CC(N)=O)C(=O)N[C@@H](Cc1ccccc1)C(=O)N[C@@H](CCCCN)C(=O)N[C@@H](CCCNC(=N)N)C(=O)N[C@@H](CCCCN)C(=O)O [INS] (H-WTAVQMAVFIHNFKRK-OH)
[1]; % of 5 mg/mL sample
  Solubility: 89.2%
[1]; from 5 mg/mL sample (10 mg/ml stock into PBS 1:1), methanol dilution, PTFE 0.45 µm filtration
  Solubility: 4.46 mg/mL (≈ 2260 µM)
[1]; rat and human plasma
  Solubility (in words): highly soluble
[2]; % of 5 mg/mL sample
  Solubility: 62%
[2]; from 5 mg/mL sample (10 mg/ml stock into plasma 1:1), at 0 min, verified at 60 min, methanol precipitation, PTFE 0.45 µm filtration
  Solubility: 3.1 mg/mL (≈ 1570 µM)
[3]; 0 h
  Analyte Remaining %: 65.7%
  Concentration calculated from LC-MS data: 3290 µg/mL
[3]; 0.25 h
  Analyte Remaining %: 60.9%
  Concentration calculated from LC-MS data: 3040 µg/mL
[3]; 0.5 h
  Analyte Remaining %: 71.1%
  Concentration calculated from LC-MS data: 3590 µg/mL
[3]; 1 h
  Analyte Remaining %: 58.4%
  Concentration calculated from LC-MS data: 2920 µg/mL
[3]; 2 h
  Analyte Remaining %: 62.7%
  Concentration calculated from LC-MS data: 3130 µg/mL
[3]; 4 h
  Analyte Remaining %: 62.2%
  Concentration calculated from LC-MS data: 3110 µg/mL
[3]; 8 h
  Analyte Remaining %: 44.2%
  Concentration calculated from LC-MS data: 2210 µg/mL
[3]; 24 h
  Analyte Remaining %: 23.8%
  Concentration calculated from LC-MS data: 1190 µg/mL
[3]; after 8 h
  Stability: 40%
[3]; after 24 h
  Stability: ~ 25%
[4]; 0 h
  Analyte Remaining %: 80.3%
  Concentration calculated from LC-MS data: 4010 µg/mL
[4]; 0.25 h
  Analyte Remaining %: 68.2%
  Concentration calculated from LC-MS data: 3410 µg/mL
[4]; 0.5 h
  Analyte Remaining %: 65.3%
  Concentration calculated from LC-MS data: 3260 µg/mL
[4]; 1 h
  Analyte Remaining %: 58.9%
  Concentration calculated from LC-MS data: 2940 µg/mL
[4]; 2 h
  Analyte Remaining %: 50.5%
  Concentration calculated from LC-MS data: 2530 µg/mL
[4]; 4 h
  Analyte Remaining %: 38.6%
  Concentration calculated from LC-MS data: 1930 µg/mL
[4]; 8 h
  Analyte Remaining %: 36.1%
  Concentration calculated from LC-MS data: 1800 µg/mL
[4]; 24 h
  Analyte Remaining %: 14.8%
  Concentration calculated from LC-MS data: 740 µg/mL
[5]
  Viability of primary lymphocytes: not affected
[6]
  no-observed-adverse-effect level (NOAEL): 7.5 mg/kg
[7]; dose level 1.5 (mg/kg)
  Immunogenicity (anti-peptide antibodies, ELISA; words): no
[7]; dose level 7.5 (mg/kg)
  Immunogenicity (anti-peptide antibodies, ELISA; words): very low
